Data: patent US12577248B2, “Substituted [1,2,4]triazolo[1,5-a]pyrazines as spleen tyrosine kinase inhibitors” (NANJING RUIJIE PHARMA CO., LTD., priority 2020, dated 2026)

Key:
Ba/F3-TEL-SYK cells = target: T1, Ba/F3-TEL-SYK cells (Homo sapiens, UniProt P43405); test: Ba/F3-TEL-SYK cell-based assay (CellTiter-Glo proliferation); details: 72 hr, read-out: BaF3 Cell assay IC50
T1 construct: fused on or other part: N-terminal part of TEL (ETV6) with its oligomerising PNT/SAM domain, fused before the SYK part that carries the kinase domain; P41212 (Transcription factor ETV6)
Procedure: CellTiter-Glo® Luminescent Cell Viability Assay was used to determine the number of viable cells in culture based on quantitation of the ATP present, as an indicator of metabolically active cells. The assay was performed in the following steps: First, the testing compounds were dissolved in DMSO to make a stock solution. The stocks (10 mM) were then diluted to varying concentrations: […], 0.305 and 0.102 μM. An aliquot of 0.2 μl of diluted compounds were added to the 384 well assay plate. Second, added 40 μl of cell suspension with 800 Ba/F3-TEL-SYK cells into each well and incubated the plate at 37° C., 5% CO2 for 72 hr. Then, added 20 μl Cell Titer-Glo Reagent into each well of the cell culture plate. Mixed the contents for 2 min on an orbital shaker to lyse cells, and rest the plate at room temperature for 30 min. Finally, luminescence values were obtained using an Envision 2104 plate reader (PerkinElmer) and calculated the average data and Standard Deviation (SD) of DMSO and Reference (GS-9973, 1 μM) as high control and low control. To determine the IC50 value, fit the data using non-linear regression equation.

[1] = In vivo pharmacokinetic analysis, single dose, ICR mice; details: mouse, male, plasma; for AUC(0-inf) / AUC(0-t) / Cmax / Tmax / half-life: single dose
Procedure: This is a single-dose study in ICR mice (male, n=9/administration) with intravenous and oral administration. Compound concentrations in plasma were measured and calculated for pharmacokinetic (PK) analysis via WinNonLin 6.4.

SYK kinase = SYK kinase (Homo sapiens, UniProt P43405); test: SYK kinase assay (HTRF KinEASE-TK); format: biochemical; details: class symbols, read-out: Syk inhibition IC50
Procedure, shortened: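 SYK pre-incubated with compound for 10 min at room temperature, then reacted with biotinylated TK substrate and ATP for 30 min in buffer with 5 mM MgCl2, 1 mM MnCl2 and 1 mM DTT. HTRF 665/615 ratio read after 1 h detection. IC50 from variable-slope fit.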

`c1nc2c(Nc3ccc(N4CCN(C5COC5)CC4)cc3)nc(-c3ccc4cn[nH]c4c3)cn2n1` [I53, 6-(1H-indazol-6-yl)-N-(4-(4-(oxetan-3-yl)piperazin-1-yl)phenyl)-[1,2,4]triazolo[1,5-a]pyrazin-8-amine] gave a GI50 (Ba/F3-TEL-SYK cells) of no more than 50 nM, an AUC(0-inf) ([1]; IV Administration (2 mg/kg)) of 2300 ng·h/mL and an AUC(0-t) ([1]; IV Administration (2 mg/kg)) of 2290 ng·h/mL. It also gave a Cmax ([1]; IV Administration (2 mg/kg)) of 3960 ng/mL, a Tmax ([1]; IV Administration (2 mg/kg)) of 0.08 h and a half-life ([1]; IV Administration (2 mg/kg)) of 9.83 h. For the same compound, the AUC(0-inf) ([1]; PO Administration (10 mg/kg)) was 7370 ng·h/mL, the AUC(0-t) ([1]; PO Administration (10 mg/kg)) was 7330 ng·h/mL and the Cmax ([1]; PO Administration (10 mg/kg)) was 7520 ng/mL. The Tmax ([1]; PO Administration (10 mg/kg)) was 0.25 h, the half-life ([1]; PO Administration (10 mg/kg)) was 4.41 h and the bioavailability ([1]; PO 10 mg/kg vs IV 2 mg/kg, read-out: F % (bioavailability)) was 64.2%. For the same compound, the IC50 (SYK kinase) was no more than 50 nM.
